The results in this text go back to US20230278981A1, “DICHLOROPHENOL HSD17B13 INHIBITORS AND USES THEREOF” (INIPHARM, INC., priority 2020, published 2023).

By pIC50 is commonly meant the negative decadic logarithm of the IC50, by convention in mol/L. Read a high pIC50 as a small IC50.

The assay concerns the target HSD17B13 (Homo sapiens (Human), UniProt Q7Z5P4). As to the kind of experiment: LC/MS estrone detection assay: conversion of estradiol to estrone by HSD17B13. The class given is biochemical. Particulars: 4 μM estradiol, 6 mM NAD+, 30 nM HSD17B13 enzyme (E. coli expressed His-tagged), 2 hours at 26.5° C. The essentials: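 His-tagged E. coli-expressed HSD17B13 (30 nM) with 4 μM estradiol and 6 mM NAD+ in 1 M potassium phosphate pH 7.4, 0.5% DMSO, 2 h at 26.5° C. Estrone and estradiol quantified by LC-MS/MS after MeCN quench with D4-estrone internal standard; activity as % of uninhibited enzyme, IC50 by four-parameter fit, duplicates.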

pIC50: −log10 of the molar value.

HSD17B13, sequence (Q7Z5P4 20-300): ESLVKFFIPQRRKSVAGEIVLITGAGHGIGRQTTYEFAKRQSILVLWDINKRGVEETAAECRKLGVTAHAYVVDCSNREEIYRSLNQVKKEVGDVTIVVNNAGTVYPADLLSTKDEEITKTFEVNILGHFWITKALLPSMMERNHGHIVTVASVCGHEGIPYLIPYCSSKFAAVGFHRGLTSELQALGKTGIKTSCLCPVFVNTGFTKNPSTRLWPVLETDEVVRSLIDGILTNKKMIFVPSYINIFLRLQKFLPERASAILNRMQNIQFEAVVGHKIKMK

Regarding `O=C(Nc1cccc2ncn(Cc3cccc(C(F)(F)F)c3)c(=O)c12)c1cc(Cl)c(O)c(Cl)n1` [Example 40, 4,6-dichloro-5-hydroxy-N-(4-oxo-3-(3-(trifluoromethyl)benzyl)-3,4-dihydroquinazolin-5-yl)picolinamide], the pIC50 is 6.30 to 7.00.
As for `O=C(Nc1cccc2ncn(Cc3cnn4ccccc34)c(=O)c12)c1cc(Cl)c(O)c(Cl)c1` [Example 100, 3,5-dichloro-4-hydroxy-N-(4-oxo-3-(pyrazolo[1,5-a]pyridin-3-ylmethyl)-3,4-dihydroquinazolin-5-yl)benzamide], the figure is 6.30 to 7.00.
`O=C(Nc1cccc2ncn(Cc3cccc(F)c3)c(=O)c12)c1cc(Cl)c(O)c(Cl)n1` [Example 22, 4,6-dichloro-N-{3-[(3-fluorophenyl)methyl]-4-oxo-3,4-dihydroquinazolin-5-yl}-5-hydroxypyridine-2-carboxamide] showed a pIC50 not below 7.00.
The figure for `O=C(Nc1ccnc2ncn(Cc3ccccc3OC(F)(F)F)c(=O)c12)c1cc(Cl)c(O)c(Cl)c1` [Example 92, 3,5-dichloro-4-hydroxy-N-(4-oxo-3-(2-(trifluoromethoxy)benzyl)-3,4-dihydropyrido[2,3-d]pyrimidin-5-yl)benzamide] is 6.30 to 7.00; for `Cc1ccc(NC(=O)c2cc(Cl)c(O)c(Cl)n2)c2c(=O)n(Cc3ncccc3F)c(C)nc12` [Example 195, 4,6-dichloro-N-(3-((3-fluoropyridin-2-yl)methyl)-2,8-dimethyl-4-oxo-3,4-dihydroquinazolin-5-yl)-5-hydroxypicolinamide] it is 5.00 to 6.00.
The figure for `O=C(Nc1nccc2ncn(Cc3ccccc3OC(F)(F)F)c(=O)c12)c1cc(Cl)c(O)c(Cl)c1` [Example 124, 3,5-dichloro-4-hydroxy-N-(4-oxo-3-(2-(trifluoromethoxy)benzyl)-3,4-dihydropyrido[4,3-d]pyrimidin-5-yl)benzamide] is 5.00 to 6.00; for `[2H]C([2H])([2H])c1nc2c(C)ccc(NC(=O)c3cc(Cl)c(O)c(Cl)c3)c2c(=O)n1Cc1ccccc1OC(F)(F)F` [Example 169, 3,5-dichloro-4-hydroxy-N-(8-methyl-2-(methyl-d3)-4-oxo-3-(2-(trifluoromethoxy)benzyl)-3,4-dihydroquinazolin-5-yl)benzamide] it is not below 7.00; for `O=C(Nc1cccc2ncn(Cc3ccncc3)c(=O)c12)c1cc(Cl)c(O)c(Cl)c1` [Example 17, 3,5-dichloro-4-hydroxy-N-(4-oxo-3-(pyridin-4-ylmethyl)-3,4-dihydroquinazolin-5-yl)benzamide] it is 5.00 to 6.00.
As for `O=C(Nc1cccc2ncn(Cc3cccc(OC(F)(F)F)c3)c(=O)c12)c1cc(Cl)c(O)c(Cl)n1` [Example 49, 4,6-dichloro-5-hydroxy-N-(4-oxo-3-(3-(trifluoromethoxy)benzyl)-3,4-dihydroquinazolin-5-yl)picolinamide], the figure is 6.30 to 7.00.
